We go through 4 compounds from patent USRE37302E, “Peptide” (Novo Nordisk A/S, priority 1992, dated 2001).

“Also recorded” adds a separate entry of the source. Where no end group is shown, it is not given here.

Assay [1] relates to isolated precultured rat pancreatic islets. The following applies: in the presence of glucose; cited from earlier work.
The test system of assay [2] is diabetic as well as nondiabetic subjects. Conditions: diabetic and nondiabetic subjects; cited from earlier work.
The test system of assay [3] is patients with NIDDM and secondary failure to sulfonylurea treatment. The assay can be described thus: Basal state and meal test in NIDDM patients with secondary failure to sulfonylurea treatment (Example 2). The assay is classed as in vivo, human. Conditions: for Insulinogenic index: after ingestion of the meal, integrated insulin/integrated glucose response; for Blood glucose: 45 minutes after start of administration, glibenclamide 1 mg i.v., GLP-1(7-36)amide 0.75 pmol/kg/min.

Assay [4] concerns insulin treated obese NIDDM patients. The assay can be described thus: Meal test in insulin treated obese NIDDM patients (Example 1). The following applies: meal-related, glibenclamide 1 mg i.v., GLP-1(7-36)amide infusion 0.75 pmol/kg/min for 210 min, 6 NIDDM patients. The assay is classed as in vivo, human.

Consider “GLP-1(1-36)amide (HDEFERHAEGTFTSDVSSYLEGQAAKEFIAWLVKGR-NH2; UniProt P01275 92-127, looked up, fragment) [amide of the GLP-1 fragment comprising amino acid residues 1 to 36]”, for which the insulin release result in assay [1] is given as “stimulates insulin release”.
Regarding “GLP-1(7-37) (HAEGTFTSDVSSYLEGQAAKEFIAWLVKGRG; Glucagon-like peptide 1(7-37); UniProt P01275 98-128, looked up) [GLP-1 fragment, residues 7 to 37; formula I when X is Gly--OH]”, the insulinotropic action entry in assay [2] is “has been demonstrated”.
Turning to GLP-1(7-36)amide, in assay [3], the Insulinogenic index was 21.0 ± 7.2. This compound returned a Blood glucose in assay [3] (basal state) of 5.1 ± 0.4 mmol/L. The Glucagon response in assay [4] is listed as 10451 ± 5126 pg/ml/210 min; in assay [4] (listed as GLP-1(7-36) amide), “suppressed the glucagon response”.
`COc1ccc(Cl)cc1C(=O)NCCc1ccc(S(=O)(=O)NC(=O)NC2CCCCC2)cc1` [glibenclamide]: in assay [3], the Insulinogenic index is 10.6 ± 2.8. The same compound came in with a Blood glucose in assay [3] (basal state) of 6.0 ± 0.3 mmol/L. Besides, the “effect on blood glucose and C-peptide levels” value in assay [3] (basal state, in words) is given as “no significant effect on its own”. Also, the Glucagon response entry in assay [4] was “no significant influence on glucagon release; also recorded: no significant effect”.
